How the values were obtained:
Type in all cases: cell-based, human
[1] = tested on: cellular reduced glutathione (GSH); test: Cellular GSH level; conditions: 24 h
Description: Fig. 4 Effect of glutamate transporter inhibition on cellular GSH levels. a Basal intracellular GSH levels were measured as described in Materials and Methods, and normalized to total protein in the samples. b-c Normalized basal GSH levels under control conditions, in HCT116 and LoVo parental and resistant cells after 24 h of treatment with 0.8 μM SN38 or 20 μM oxaliplatin, in absence or presence of DL-TBOA (350 μM) as shown. * p < 0.05 vs untreated control group (n = 5). One-way ANOVA followed by Dunnett post-test
Cells were seeded in 24-well plates (10^4 cells per well), treated the next day with chemotherapy and/or DL-TBOA and incubated for 24 h. Medium was removed and cells were washed twice with ice-cold PBS, which was removed and 500 μl ice-cold 1 % Sulfosalicylic acid was added per well. Cells were incubated on ice for at least 10 min. After centrifugation (1 min, 15,000 g), 10 μl lysate was used to determine total GSx content. To measure GSSG content, 130 μl sample was mixed with 55 μl 0.2 M Tris (pH 9) and 5 μl 2-Vinylpyridine. Tubes were vortexed carefully and incubated for at least 1 h at room temperature. 10 μl of this mix was mixed first with 90 μl of water in a 96-well plate and then with a reaction mix (0.1 M sodium phosphate buffer pH 7.5 containing 1 mM EDTA, 10 mM NADPH, 10 mM DTNB and 0.05 μl Glutathione reductase, 2U/μl). Measurements were taken every 30 s for 10 min in an ELISA plate reader (Thermo Scientific MultiScan FC) at 405 nm absorbance. GSH values were obtained by subtraction of GSSG values from GSx values.

CTR1 = CTR1 protein level by Western blotting; conditions: 24 h
Description: Fig. 3 Effect of acute DL-TBOA and chemotherapy treatment on CTR1 protein level. Parental and drug-resistant HCT116 (a) and LoVo (b) cell lines were exposed to SN38 (0.8 μM) or oxaliplatin (20 μM), alone or in combination with 350 μM DL-TBOA as indicated for 24 h. Equal amounts of protein per lane were separated by SDS-PAGE and the protein levels of CTR1 were determined by Western blotting. Top: Representative Western blots (tubulin serves as a loading control), bottom: Densitometric quantification data summarized from 3 independent experiments per condition. Quantitative data are means with S.E.M. error bars of 3 independent experiments. *) p < 0.05, **) p < 0.01, ***) p < 0.001 compared to the control group without drug or TBOA treatment. Two-way ANOVA with Tukey post-test
Cells were grown to a confluence of 60-80 % and treated with chemotherapy, siRNA- or plasmid transfection as indicated. Cells were washed once in PBS, lysed in lysis buffer (1 % SDS, 0.1 M Tris pH 7.5, and 1 mM Na3VO4), sonicated, and protein content determined (DC assay, BioRad). Lysates were mixed 2:1with NuPage LDS sample buffer (Invitrogen). SDS-PAGE was carried out in NOVEX chambers with NuPAGE 10 % Bis-Tris gels under reducing and denaturing conditions, using BenchMark protein ladder (Invitrogen), and 15 μg protein per lane. […] Bands were scanned and quantified using UN-SCAN-IT (Silk Scientific).

[2] = tested on: SLC1A1 localization in HCT116 cells; test: Immunofluorescence analysis of SLC1A1 subcellular localization; conditions: 48 h
Description: Immunofluorescence analysis was carried out essentially as in [47]. Cells grown on glass coverslips were fixed in 2 % paraformaldehyde, washed in TBST, permeabilized for 5 min (0.5 % Triton X-100 in TBST), blocked for 30 min in 5 % BSA in TBST, incubated with SLC1A1 primary antibody in TBST + 1 % BSA overnight at 4 °C, washed in TBST, and with Rhodamine-phalloidin and AlexaFluor488 conjugated secondary antibody (1:600 in TBS + 1 % BSA) for 1 h, followed by washing in TBST, and mounting in N-propyl-galleate mounting medium (2 % w/v in PBS/glycerol). DAPI was added for 3 min following incubation with the secondary antibody. Cells were visualized using the 60X/1.35 NA objective of an Olympus Bx63 epifluorescence microscope. […] Overlays were carried out using Adobe Photoshop software. No other image adjustment was performed.

p21^WAF1/Cip (p21) = test: p21 protein level by Western blotting; conditions: for p21 protein level: 24 h, 0.8 μM SN38 or 20 μM oxaliplatin
Description: Cells were grown to a confluence of 60-80 % and treated with chemotherapy, siRNA- or plasmid transfection as indicated. Cells were washed once in PBS, lysed in lysis buffer (1 % SDS, 0.1 M Tris pH 7.5, and 1 mM Na3VO4), sonicated, and protein content determined (DC assay, BioRad). Lysates were mixed 2:1with NuPage LDS sample buffer (Invitrogen). SDS-PAGE was carried out in NOVEX chambers with NuPAGE 10 % Bis-Tris gels under reducing and denaturing conditions, using BenchMark protein ladder (Invitrogen), and 15 μg protein per lane. Proteins were transferred to PVDF membranes, which were Ponceau S stained, blocked for 1 h at 37 °C in 5 % nonfat dry milk in TBST (0.01 M Tris/HCl, 0.15 M NaCl, 0.1 % Tween 20, pH 7.4), incubated overnight at 4 °C with primary antibodies diluted in blocking buffer, washed in TBST, incubated with secondary antibodies for 1 h, washed in TBST, and developed using BCIP/NBT (KPL). Bands were scanned and quantified using UN-SCAN-IT (Silk Scientific).
Supplementary file 12885_2015_1405_MOESM3_ESM.tiff: Additional file 3: Figure S3. Effects of DL-TBOA on cell death and survival parameters after chemotherapy treatment of HCT116 cells. Parental and drug-resistant HCT116 cell lines seeded in 6-well dishes were exposed to SN38 (0.8 μM) or oxaliplatin (20 μM), alone or in combination with 350 μM DL-TBOA as indicated, for 24 h. Equal amounts of protein per lane were separated by SDS-PAGE and the protein levels of p21, and PARP-1 (full-length and cleaved, the latter indicated by arrowheads) were determined by Western blotting. Top: Representative Western blots, with p150 as loading control. Bottom: Densitometric quantifications based on 3 independent experiments per condition. Data are means with S.E.M. error bars of 3 independent experiments. *) p < 0.05, **) p < 0.01, ***) p < 0.001,****) p < 0.0001 compared to the control group without drug or TBOA treatment; #) p < 0.05 compared to controls without TBOA treatment. Two-way ANOVA with Tukey post-test.

[3] = parental HCT116 cells, 0.8 μM SN38 or 20 μM oxaliplatin

| SMILES | effect on cellular GSH levels [1, 3] | effect on CTR1 protein expression (CTR1; 20 μM oxaliplatin, all cell lines except parental HCT116, HCT116-Oxa, LoVo-Oxa) | SLC1A1 subcellular localization [2, 3] | p21 protein level (p21^WAF1/Cip (p21); SN38-resistant HCT116 cells) | p21 protein level (p21^WAF1/Cip (p21); parental HCT116 cells) | effect on cellular GSH levels ([1]; 350 μM DL-TBOA, HCT116 and LoVo parental and resistant cells) | effect on CTR1 protein level (CTR1; 350 μM DL-TBOA +/- SN38 (0.8 μM) or oxaliplatin (20 μM), HCT116 and LoVo lines) | effect on SLC1A1 localization ([2]; SN38-resistant HCT116 cells, 350 μM DL-TBOA added to chemotherapeutic treatment) | effect on intracellular SLC1A1 localization ([2]; oxaliplatin-resistant HCT116 cells, control and oxaliplatin-treated, 350 μM DL-TBOA) | effect on SLC1A1 localization ([2]; parental HCT116 cells, 350 μM DL-TBOA alone or with chemotherapeutic agents) | effect on cellular level of p21 (p21^WAF1/Cip (p21); DL-TBOA, HCT116 and LoVo cells) |
| --- | --- | --- | --- | --- | --- | --- | --- | --- | --- | --- | --- |
| O=C(O)C(=O)O.[NH-][C@@H]1CCCC[C@H]1[NH-].[Pt+2] [oxaliplatin] | slightly increased GSH levels | tended to reduce CTR1 protein expression | marked shift in SLC1A1 localization towards the perinuclear/nuclear region | retained | markedly induced | – | – | – | – | – | – |
| N[C@H](C(=O)O)[C@H](OCc1ccccc1)C(=O)O (racemic) [TBOA, DL-Threo-β-Benzyloxyaspartic acid] | – | – | – | – | – | no detectable effect | without detectable effects | increased the fraction of SLC1A1 fluorescence localized to the perinuclear/nuclear compartment | partially reversed | no detectable effect on SLC1A1 localization | did not significantly alter |
